For the data set, the target named is T1, MDR1 (Homo sapiens, UniProt P08183).
T1 construct: expressed in transfected cells
The data set can be described thus: MDR1 membrane permeability test. The following applies: pH 7.4, efflux ratio (ER), Papp B to A / A to B, human MDR1-expressing LLC-PK1 cells, read-out: MDR1 substrate screening 1 μM (MDRSUB1)/Ratio (NUMBER). Type of data set: in vitro ADME. On the procedure: MDR1 Membrane Permeability Test
When MDR1 is expressed in excess in LLC-PK1 cell, which is a polar cell, MDR1 is localized in apical membrane (A), thus promoting transcellular transport from the basement membrane side (B) toward direction A. When a ratio to the transcellular transport in the opposite direction is taken and a ratio to a control cell in which a mock vector has been introduced is further taken, an efflux ratio of MDR1 to simple diffusion (corrected efflux ratio) is calculated. Similarly, when a brain/plasma concentration ratio in Mdr1(−/−) mouse is divided by a brain/plasma concentration ratio in wild-type mouse, an efflux ratio of Mdr1 to simple diffusion in BBB (Kp, brain ratio, higher value means lower central nervous system permeability) is calculated. Adachi Y. et al. (Reference 1) has reported a positive correlation between corrected efflux ratio and Kp, brain ratio (FIG. 5(C)), and efflux ratio in MDR1 expressing cell and Kp, brain ratio (FIG. 5(B)).
To confirm the central nervous system permeability of the compounds of the present invention, a MDR1 membrane permeability test was performed by the following method.
Human MDR1-expressing LLC-PK1 cells were cultured according to the report of Takeuchi et al. (Reference 2). Human MDR1-expressing LLC-PK1 cells were cultured in 10% fetal bovine serum (Invitrogen), 500 μg/ml G418 (Invitrogen), 150 ng/ml colchicine-containing M199 medium (Invitrogen) under 5% CO2 conditions at 37° C.
Transcellular transport was performed according to the report of Sugimoto et al. (Reference 3). The cells were cultured for 3 days on HTS Transwell (registered trademark) 96 well permeable support (pore size 0.4 μm, 0.143 cm^2 surface area, Corning Life Sciences) having polyethylene terephthalate membrane on which the cells had been seeded at 3.45×10^4 cells/well. After preincubation in M199 medium (containing 10 mmol/L HEPES, 1% BSA, pH 7.4) for 30 min, a drug solution (10 μmol/L digoxin, 200 μmol/L LY, […]) dissolved in M199 medium was added to the apical side or basolateral side of the Transwell by 75 or 250 μL each and the cells were cultured under 5% CO2 conditions at 37° C. After 1 hr, the sample was collected from the side opposite to the side where the drug solution was added, and the concentration of the test compound was measured by LC-MS/MS. As an internal standard substance, 100 ng/mL alprenolol and diclofenac were used. The analysis conditions were as follows.
Papp, A to B and Papp, B to A (apparent permeability) were calculated from the formula (1), and the efflux ratio (ER) was calculated from the formula (2).

T1 sequence (P08183 whole entry): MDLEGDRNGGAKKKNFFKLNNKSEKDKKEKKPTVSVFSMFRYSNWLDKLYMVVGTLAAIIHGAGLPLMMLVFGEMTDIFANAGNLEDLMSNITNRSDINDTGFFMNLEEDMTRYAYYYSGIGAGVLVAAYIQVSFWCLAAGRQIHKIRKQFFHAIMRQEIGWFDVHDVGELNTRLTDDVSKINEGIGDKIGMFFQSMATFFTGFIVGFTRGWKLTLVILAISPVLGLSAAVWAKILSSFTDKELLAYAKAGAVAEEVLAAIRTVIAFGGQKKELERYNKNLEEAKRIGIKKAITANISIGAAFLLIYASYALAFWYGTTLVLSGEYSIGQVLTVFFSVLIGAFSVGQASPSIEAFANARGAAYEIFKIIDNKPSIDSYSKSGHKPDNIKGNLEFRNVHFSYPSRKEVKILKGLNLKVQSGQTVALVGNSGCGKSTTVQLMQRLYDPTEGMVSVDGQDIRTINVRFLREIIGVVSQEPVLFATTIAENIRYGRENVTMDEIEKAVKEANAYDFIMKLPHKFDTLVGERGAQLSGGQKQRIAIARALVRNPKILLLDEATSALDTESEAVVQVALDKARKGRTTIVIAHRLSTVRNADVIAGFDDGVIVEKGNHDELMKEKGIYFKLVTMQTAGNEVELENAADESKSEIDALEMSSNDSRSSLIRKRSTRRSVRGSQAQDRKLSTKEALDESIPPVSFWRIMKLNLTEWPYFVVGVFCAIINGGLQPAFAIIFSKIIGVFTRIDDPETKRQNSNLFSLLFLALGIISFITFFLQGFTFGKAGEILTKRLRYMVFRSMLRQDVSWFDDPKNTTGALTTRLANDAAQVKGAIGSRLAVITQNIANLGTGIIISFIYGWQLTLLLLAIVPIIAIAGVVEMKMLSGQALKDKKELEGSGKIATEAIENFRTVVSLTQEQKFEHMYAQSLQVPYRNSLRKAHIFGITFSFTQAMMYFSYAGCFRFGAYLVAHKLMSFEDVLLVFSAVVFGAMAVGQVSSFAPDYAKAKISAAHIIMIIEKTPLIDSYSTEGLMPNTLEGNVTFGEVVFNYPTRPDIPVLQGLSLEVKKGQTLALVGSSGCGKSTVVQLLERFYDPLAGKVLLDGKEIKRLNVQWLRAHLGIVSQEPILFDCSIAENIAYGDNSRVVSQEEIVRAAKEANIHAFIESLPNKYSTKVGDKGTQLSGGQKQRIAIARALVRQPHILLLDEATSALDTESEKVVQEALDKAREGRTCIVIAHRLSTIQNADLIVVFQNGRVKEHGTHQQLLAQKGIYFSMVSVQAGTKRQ

As to `Cc1ccc(Cc2cc3c(=O)n([C@H]4CCOC[C@@H]4O)cnc3c(C)c2C)cn1` [Example 7, 1,5-anhydro-2,3-dideoxy-3-(7,8-dimethyl-6-((6-methylpyridin-3-yl)methyl)-4-oxoquinazolin-3(4H)-yl)-L-threo-pentitol], the efflux ratio at 1 hr, 1 μM is 3.5.

Take `Cc1c(Cc2ccc(C(=O)NC3(C)CC3)cc2)cc2c(=O)n([C@H]3CCOC[C@@H]3O)cnc2c1C` [Example 43, 1,5-anhydro-2,3-dideoxy-3-(7,8-dimethyl-6-(4-((1-methylcyclopropyl)carbamoyl)-benzyl)-4-oxoquinazolin-3 (4H)-yl)-L-threo-pentitol]: the efflux ratio at 1 hr, 1 μM was 12.

For `Cc1c(Cc2ccc(C(=O)N3CC(O)C3)cc2)cc2c(=O)n([C@H]3CCOC[C@@H]3O)cnc2c1C` [Example 40, 1,5-anhydro-2,3-dideoxy-3-(6-(4-((3-hydroxyazetidin-1-yl)carbonyl)benzyl)-7,8-dimethyl-4-oxoquinazolin-3 (4H)-yl)-L-threo-pentitol], the efflux ratio at 1 hr, 1 μM is 12.

As to `CCNC(=O)c1ccc(Cc2cc3c(=O)n([C@H]4CCOC[C@@H]4O)cnc3c(C)c2C)cc1` [Example 28, 1,5-anhydro-2,3-dideoxy-3-(6-(4-(ethylcarbamoyl)benzyl)-7,8-dimethyl-4-oxoquinazolin-3 (4H)-yl)-L-threo-pentitol], the efflux ratio at 1 hr, 1 μM is 11.

On to `Cc1c(Cc2ccc(-n3cccn3)cc2)cc2c(=O)n([C@H]3CCOC[C@@H]3O)cnc2c1C` [Comparative Example 1, 3-((3R,4S)-3-hydroxytetrahydro-2H-pyran-4-yl)-7,8-dimethyl-6-(4-(1H-pyrazol-1-yl)benzyl)quinazolin-4(3H)-one, reference compound], for which the efflux ratio at 1 hr, 1 μM was determined as 0.83.

For `CNC(=O)c1ccc(Cc2cc3c(=O)n([C@H]4CCOC[C@@H]4O)nnc3c(C)c2C)cc1F` [Example 55, 1,5-anhydro-2,3-dideoxy-3-(6-(3-fluoro-4-(methylcarbamoyl)benzyl)-7,8-dimethyl-4-oxo-1,2,3-benzotriazin-3 (4H)-yl)-L-threo-pentitol], the efflux ratio at 1 hr, 1 μM came to 3.2.

Turning to `Cc1c(Cc2ccc(C(=O)N[C@H]3CCOC[C@@H]3O)c(F)c2)cc2c(=O)n([C@H]3CCOC[C@@H]3O)cnc2c1C` [Example 88, 2-fluoro-N-((3R,4S)-3-hydroxytetrahydro-2H-pyran-4-yl)-4-((3-((3R,4S)-3-hydroxytetrahydro-2H-pyran-4-yl)-7,8-dimethyl-4-oxo-3,4-dihydroquinazolin-6-yl)methyl)benzamide], the efflux ratio at 1 hr, 1 μM was 16.

For the molecule `Cc1ccc(Cc2cc3c(=O)n([C@H]4CCOC[C@@H]4O)cnc3c(Cl)c2C)cn1` [Example 16, 1,5-anhydro-3-(8-chloro-7-methyl-6-((6-methylpyridin-3-yl)methyl)-4-oxoquinazolin-3(4H)-yl)-2,3-dideoxy-L-threo-pentitol], the efflux ratio at 1 hr, 1 μM stood at 6.8.

Regarding `Cc1c(Cc2ccc(C(=O)NCC(=O)N(C)C)cc2)cc2c(=O)n([C@H]3CCOC[C@@H]3O)cnc2c1C` [Example 30, 1,5-anhydro-2,3-dideoxy-3-(6-(4-((2-(dimethylamino)-2-oxoethyl)carbamoyl)benzyl)-7,8-dimethyl-4-oxoquinazolin-3 (4H)-yl)-L-threo-pentitol], the efflux ratio at 1 hr, 1 μM was found to be 24.

As for `Cc1c(Cc2ccc(C(=O)NCCC(F)(F)F)cc2)cc2c(=O)n([C@H]3CCOC[C@@H]3O)cnc2c1C` [Example 53, 1,5-anhydro-2,3-dideoxy-3-(7,8-dimethyl-4-oxo-6-(4-((3,3,3-trifluoropropyl)carbamoyl)-benzyl)quinazolin-3 (4H)-yl)-L-threo-pentitol], the efflux ratio at 1 hr, 1 μM is 8.3.

With `Cc1c(Cc2ccc(C(=O)NC3(C(F)F)CC3)cc2)cc2c(=O)n([C@H]3CCOC[C@@H]3O)cnc2c1C` [Example 35, 1,5-anhydro-2,3-dideoxy-3-(6-(4-((1-(difluoromethyl)-cyclopropyl)carbamoyl)benzyl)-7,8-dimethyl-4-oxoquinazolin-3 (4H)-yl)-L-threo-pentitol], the efflux ratio at 1 hr, 1 μM was 9.

For `Cc1c(Cc2ccc(C(=O)NCCF)cc2)cc2c(=O)n([C@H]3CCOC[C@@H]3O)cnc2c1C` [Example 37, 1,5-anhydro-2,3-dideoxy-3-(6-(4-((2-fluoroethyl)carbamoyl)benzyl)-7,8-dimethyl-4-oxoquinazolin-3 (4H)-yl)-L-threo-pentitol], the efflux ratio at 1 hr, 1 μM turned out to be 12.

In the case of `Cc1c(Cc2ccc(-c3cnn(CC(F)(F)F)c3)nc2)cc2c(=O)n([C@H]3CCOC[C@@H]3O)cnc2c1C` [Example 74, 1,5-anhydro-2,3-dideoxy-3-(7,8-dimethyl-4-oxo-6-((6-(1-(2,2,2-trifluoroethyl)-1H-pyrazol-4-yl)pyridin-3-yl)methyl)quinazolin-3(4H)-yl)-L-threo-pentitol], the efflux ratio at 1 hr, 1 μM was determined as 7.1.

For the molecule `COC(C)(C)CNC(=O)c1ccc(Cc2cc3c(=O)n([C@H]4CCOC[C@@H]4O)cnc3c(C)c2C)cc1` [Example 31, 1,5-anhydro-2,3-dideoxy-3-(6-(4-((2-methoxy-2-methylpropyl)carbamoyl)benzyl)-7,8-dimethyl-4-oxoquinazolin-3 (4H)-yl)-L-threo-pentitol], the efflux ratio at 1 hr, 1 μM worked out at 12.

On to `Cc1c(Cc2ccc(-c3cnn(C(C)(C)C)c3)nc2)cc2c(=O)n([C@H]3CCOC[C@@H]3O)cnc2c1C` [Example 72, 1,5-anhydro-3-(6-((6-(1-tert-butyl-1H-pyrazol-4-yl)pyridin-3-yl)methyl)-7,8-dimethyl-4-oxoquinazolin-3(4H)-yl)-2,3-dideoxy-L-threo-pentitol], for which the efflux ratio at 1 hr, 1 μM was determined as 2.9.

For the molecule `Cc1c(Cc2ccc(C(=O)NC3(C)COC3)cc2)cc2c(=O)n([C@H]3CCOC[C@@H]3O)cnc2c1C` [Example 26, 1,5-anhydro-2,3-dideoxy-3-(7,8-dimethyl-6-(4-((3-methyloxetan-3-yl)carbamoyl)benzyl)-4-oxoquinazolin-3(4H)-yl)-L-threo-pentitol], the efflux ratio at 1 hr, 1 μM amounted to 24.

For `Cc1c(Cc2ccc(-c3cnn(CC(=O)N(C)C)c3)nc2)cc2c(=O)n([C@H]3CCOC[C@@H]3O)cnc2c1C` [Example 82, 1,5-anhydro-2,3-dideoxy-3-(6-((6-(1-(2-(dimethylamino)-2-oxoethyl)-1H-pyrazol-4-yl)pyridin-3-yl)methyl)-7,8-dimethyl-4-oxoquinazolin-3(4H)-yl)-L-threo-pentitol], the efflux ratio at 1 hr, 1 μM was over 18.

Consider `Cc1c(Cc2ccc(C(=O)NCCN3CCOCC3)cc2)cc2c(=O)n([C@H]3CCOC[C@@H]3O)cnc2c1C` [Example 47, 1,5-anhydro-2,3-dideoxy-3-(7,8-dimethyl-6-(4-((2-(morpholin-4-yl)ethyl)carbamoyl)benzyl)-4-oxoquinazolin-3 (4H)-yl)-L-threo-pentitol], for which the efflux ratio at 1 hr, 1 μM turned out to be 24.

Regarding `Cc1nn(C)cc1-c1ccc(Cc2cc3c(=O)n([C@H]4CCOC[C@@H]4O)cnc3c(Cl)c2C)cn1` [Example 12, 1,5-anhydro-3-(8-chloro-6-((6-(1,3-dimethyl-1H-pyrazol-4-yl)pyridin-3-yl)methyl)-7-methyl-4-oxoquinazolin-3(4H)-yl)-2,3-dideoxy-L-threo-pentitol], the efflux ratio at 1 hr, 1 μM is 17.

Turning to `Cc1c(Cc2ccc(-c3cn(C)nn3)cc2)cc2c(=O)n([C@H]3CCOC[C@@H]3O)cnc2c1Cl` [Example 15, 1,5-anhydro-3-(8-chloro-7-methyl-6-(4-(1-methyl-1H-1,2,3-triazol-4-yl)benzyl)-4-oxoquinazolin-3(4H)-yl)-2,3-dideoxy-L-threo-pentitol], the efflux ratio at 1 hr, 1 μM turned out to be 9.7.

Consider `Cc1c(Cc2ccc(C(=O)NC34CC(C3)C4)cc2)cc2c(=O)n([C@H]3CCOC[C@@H]3O)cnc2c1C` [Example 42, 1,5-anhydro-3-(6-(4-(bicyclo[1.1.1]penta-1-ylcarbamoyl)benzyl)-7,8-dimethyl-4-oxoquinazolin-3 (4H)-yl)-2,3-dideoxy-L-threo-pentitol], for which the efflux ratio at 1 hr, 1 μM was determined as 5.9.

Take `Cc1c(Cc2ccc(C(=O)NCCCS(C)(=O)=O)c(F)c2)cc2c(=O)n([C@H]3CCOC[C@@H]3O)cnc2c1C` [Example 70, 1,5-anhydro-2,3-dideoxy-3-(6-(3-fluoro-4-((3-(methylsulfonyl)propyl)-carbamoyl)benzyl)-7,8-dimethyl-4-oxoquinazolin-3 (4H)-yl)-L-threo-pentitol]: the efflux ratio at 1 hr, 1 μM was 13.

The values are drawn from patent publication US11560372B2, “Heterocyclic compounds useful as modulators of acetylcholine receptors” (TAKEDA PHARMACEUTICAL COMPANY LIMITED, priority 2017, dated 2023).
